Measurements reported in ChEMBL document CHEMBL1136647, “Visual detection of AMP and real-time monitoring of cyclic nucleotide phosphodiesterase (PDE) activity in neutral aqueous solution. Chemosensor-coupled assay of PDE and PDE inhibitors” (Bioorg Med Chem Lett, 2003).

Experiment: Inhibitory concentration against phosphodiesterase from bovine heart

IC50: 36 µM
Structure (SMILES): CC(C)Cn1c(=O)n(C)c(=O)c2nc[nH]c21 [ISOBUTYLMETHYLXANTHINE]
